From paper PMC5218480 (PLoS ONE, 2017)

System: MV-4-11 cells
Experiment: Gene expression microarray analysis (Affymetrix PrimeView) and GSEA
Type: cell-based, human
Parameters: RFU PODN (11730768_x_at) / Fold change /veh PODN (11730768_x_at) / RFU LINC00158 (11744669_a_at) / Fold change /veh LINC00158 (11744669_a_at) / RFU DUSP10 (11751237_a_at) / Fold change /veh DUSP10 (11751237_a_at) / RFU ID3 (11757404_x_at) / Fold change /veh ID3 (11757404_x_at) / RFU PLEKHG5 (11737974_s_at) / Fold change /veh PLEKHG5 (11737974_s_at) / RFU LRRC4B (11730491_at) / Fold change /veh LRRC4B (11730491_at) / RFU GIMAP4 (11747438_a_at) / Fold change /veh GIMAP4 (11747438_a_at) / RFU KRT8 (11758183_x_at) / Fold change /veh KRT8 (11758183_x_at) / RFU CNN1 (11734310_a_at) / Fold change /veh CNN1 (11734310_a_at) / RFU VPS37D (11726825_at) / Fold change /veh VPS37D (11726825_at) / RFU C10orf10 (11716522_x_at) / Fold change /veh C10orf10 (11716522_x_at) / RFU KIR2DL2 /// KIR2DL4 /// KIR2DL5A /// KIR2DL5B /// KIR2DS1 /// KIR2DS2 /// KIR2DS3 /// KIR2DS4 /// KIR3DL3 /// KIR3DL3 /// KIR3DS1 (11738374_at) / Fold change /veh KIR2DL2 /// KIR2DL4 /// KIR2DL5A /// KIR2DL5B /// KIR2DS1 /// KIR2DS2 /// KIR2DS3 /// KIR2DS4 /// KIR3DL3 /// KIR3DL3 /// KIR3DS1 (11738374_at) / RFU C1QL1 (11718748_at) / Fold change /veh C1QL1 (11718748_at) / RFU TMPRSS4 (11747572_a_at) / Fold change /veh TMPRSS4 (11747572_a_at) / RFU HAMP (11756126_x_at) / Fold change /veh HAMP (11756126_x_at) / RFU RNFT2 (11725882_a_at) / Fold change /veh RNFT2 (11725882_a_at) / RFU NR4A2 (11747474_a_at) / Fold change /veh NR4A2 (11747474_a_at) / RFU ABCC12 (11746883_a_at) / Fold change /veh ABCC12 (11746883_a_at) / RFU TMEM136 (11760407_x_at) / Fold change /veh TMEM136 (11760407_x_at) / RFU CLDN22 /// WWC2 (11732394_at) / Fold change /veh CLDN22 /// WWC2 (11732394_at) / RFU HLA-DPB1 (11760878_x_at) / Fold change /veh HLA-DPB1 (11760878_x_at) / RFU SPINT1 (11716480_a_at) / Fold change /veh SPINT1 (11716480_a_at) / RFU GAP43 (11754022_s_at) / Fold change /veh GAP43 (11754022_s_at) / RFU A4GNT (11735810_at) / Fold change /veh A4GNT (11735810_at) / RFU PRB3 (11715151_x_at) / Fold change /veh PRB3 (11715151_x_at) / RFU TUBB4B (11761932_at) / Fold change /veh TUBB4B (11761932_at) / RFU CAPN14 (11732068_a_at) / Fold change /veh CAPN14 (11732068_a_at) / RFU TMCC2 (11721928_a_at) / Fold change /veh TMCC2 (11721928_a_at) / RFU IRGQ (11745062_a_at) / Fold change /veh IRGQ (11745062_a_at) / RFU FAM174B (11720279_a_at) / Fold change /veh FAM174B (11720279_a_at) / RFU TMPRSS4 (11748680_a_at) / Fold change /veh TMPRSS4 (11748680_a_at) / RFU FAM212B (11763350_a_at) / Fold change /veh FAM212B (11763350_a_at) / RFU PLEKHG5 (11743358_a_at) / Fold change /veh PLEKHG5 (11743358_a_at) / RFU ZSCAN30 (11745921_a_at) / Fold change /veh ZSCAN30 (11745921_a_at) / RFU CMKLR1 (11741424_a_at) / Fold change /veh CMKLR1 (11741424_a_at) / RFU LOC101060620 /// MAPK8IP1 (11723275_at) / Fold change /veh LOC101060620 /// MAPK8IP1 (11723275_at) / RFU SPTSSB (11747773_x_at) / Fold change /veh SPTSSB (11747773_x_at) / RFU PRSS12 (11739890_at) / Fold change /veh PRSS12 (11739890_at) / RFU BIN1 (11741810_x_at) / Fold change /veh BIN1 (11741810_x_at) / RFU WNT11 (11732464_a_at) / Fold change /veh WNT11 (11732464_a_at) / RFU C10orf10 (11716521_a_at) / Fold change /veh C10orf10 (11716521_a_at) / RFU C5orf56 (11738089_at) / Fold change /veh C5orf56 (11738089_at) / RFU CYB561 (11721691_x_at) / Fold change /veh CYB561 (11721691_x_at) / RFU ANKRD19P (11752326_a_at) / Fold change /veh ANKRD19P (11752326_a_at) / RFU OR2T12 /// OR2T33 /// OR2T8 (11738714_s_at) / Fold change /veh OR2T12 /// OR2T33 /// OR2T8 (11738714_s_at) / RFU VCAN (11748164_a_at) / Fold change /veh VCAN (11748164_a_at) / RFU JSRP1 (11732532_at) / Fold change /veh JSRP1 (11732532_at) / RFU KRTAP10-11 (11738290_x_at) / Fold change /veh KRTAP10-11 (11738290_x_at) / RFU MYO3A (11730013_a_at) / Fold change /veh MYO3A (11730013_a_at) / RFU EBF3 (11725865_a_at) / Fold change /veh EBF3 (11725865_a_at) / RFU CAMK2N1 (11719241_x_at) / Fold change /veh CAMK2N1 (11719241_x_at) / RFU C5orf56 (11738088_a_at) / Fold change /veh C5orf56 (11738088_a_at) / RFU OLFML3 (11715873_a_at) / Fold change /veh OLFML3 (11715873_a_at) / RFU LOC100653217 /// NTM (11731650_a_at) / Fold change /veh LOC100653217 /// NTM (11731650_a_at) / RFU MAPK11 (11762145_a_at) / Fold change /veh MAPK11 (11762145_a_at) / RFU FIZ1 (11724087_x_at) / Fold change /veh FIZ1 (11724087_x_at) / RFU OASL (11726364_x_at) / Fold change /veh OASL (11726364_x_at) / RFU SOX15 (11748057_x_at) / Fold change /veh SOX15 (11748057_x_at) / RFU CD79A (11719716_a_at) / Fold change /veh CD79A (11719716_a_at) / RFU HIST1H1D (11736915_at) / Fold change /veh HIST1H1D (11736915_at) / RFU CASKIN2 (11723855_a_at) / Fold change /veh CASKIN2 (11723855_a_at) / RFU LOC730098 (11760151_x_at) / Fold change /veh LOC730098 (11760151_x_at) / RFU OR4N2 (11742367_at) / Fold change /veh OR4N2 (11742367_at) / RFU PRRT2 (11749266_a_at) / Fold change /veh PRRT2 (11749266_a_at) / RFU SNX32 (11753110_a_at) / Fold change /veh SNX32 (11753110_a_at) / RFU CDHR5 (11726645_a_at) / Fold change /veh CDHR5 (11726645_a_at) / RFU RCAN1 (11760418_a_at) / Fold change /veh RCAN1 (11760418_a_at) / RFU FAM167A (11723789_a_at) / Fold change /veh FAM167A (11723789_a_at) / RFU FAM26E (11764081_at) / Fold change /veh FAM26E (11764081_at) / RFU ISYNA1 (11749810_s_at) / Fold change /veh ISYNA1 (11749810_s_at) / RFU ACY1 (11761880_at) / Fold change /veh ACY1 (11761880_at) / RFU 11764098_at / Fold change /veh 11764098_at / RFU SAMD14 (11745864_x_at) / Fold change /veh SAMD14 (11745864_x_at) / RFU NPB (11741838_a_at) / Fold change /veh NPB (11741838_a_at) / RFU TMPRSS6 (11731388_a_at) / Fold change /veh TMPRSS6 (11731388_a_at) / RFU KRTAP10-2 (11738614_at) / Fold change /veh KRTAP10-2 (11738614_at) / RFU ARHGAP8 /// PRR5-ARHGAP8 (11727945_x_at) / Fold change /veh ARHGAP8 /// PRR5-ARHGAP8 (11727945_x_at) / RFU KRTAP5-7 /// NADSYN1 (11734609_at) / Fold change /veh KRTAP5-7 /// NADSYN1 (11734609_at) / RFU RASL12 (11751679_a_at) / Fold change /veh RASL12 (11751679_a_at) / RFU CDKN2B (11736163_a_at) / Fold change /veh CDKN2B (11736163_a_at) / RFU PRF1 (11729649_at) / Fold change /veh PRF1 (11729649_at) / RFU, ZNF638 /// ZNF638-IT1 / Fold change vs veh, ZNF638 /// ZNF638-IT1 / RFU, PANK3 / Fold change vs veh, PANK3 / RFU, SH3YL1 / Fold change vs veh, SH3YL1 / RFU, ZEB2 / Fold change vs veh, ZEB2 / RFU, NRIP1 / Fold change vs veh, NRIP1 / RFU, PTTG1IP / Fold change vs veh, PTTG1IP / RFU, CAPN2 / Fold change vs veh, CAPN2 / RFU, MED14 / Fold change vs veh, MED14 / RFU, SNORA58 / Fold change vs veh, SNORA58 / RFU, C1orf63 / Fold change vs veh, C1orf63 / RFU, LRRFIP1 / Fold change vs veh, LRRFIP1 / RFU, NDUFAF7 / Fold change vs veh, NDUFAF7 / RFU, SLC12A2 / Fold change vs veh, SLC12A2 / RFU, IBTK / Fold change vs veh, IBTK / RFU, ESF1 / Fold change vs veh, ESF1 / Fold change vs veh, TMEM50B / RFU, TAOK1 / Fold change vs veh, TAOK1 / RFU, ACBD3 / Fold change vs veh, ACBD3 / RFU, TMA16 / Fold change vs veh, TMA16 / RFU, RWDD3 / Fold change vs veh, RWDD3 / RFU, BCAT1 / Fold change vs veh, BCAT1 / RFU, EDEM3 / Fold change vs veh, EDEM3 / RFU, TMEM33 / Fold change vs veh, TMEM33 / RFU, WDR75 / Fold change vs veh, WDR75 / RFU, AHCTF1 / Fold change vs veh, AHCTF1 / RFU, TFRC / Fold change vs veh, TFRC / RFU, ZDHHC17 / Fold change vs veh, ZDHHC17 / RFU, NOM1 / Fold change vs veh, NOM1 / RFU, ARL8B / Fold change vs veh, ARL8B / RFU, ZBTB11 / Fold change vs veh, ZBTB11 / RFU, TAMM41 / Fold change vs veh, TAMM41 / RFU, KIAA1704 /// LOC100996395 / Fold change vs veh, KIAA1704 /// LOC100996395 / RFU, ING1 / Fold change vs veh, ING1 / RFU, TRMT61B / Fold change vs veh, TRMT61B / RFU, FUBP3 / Fold change vs veh, FUBP3 / RFU, TP53 / Fold change vs veh, TP53 / RFU, TNKS2 / Fold change vs veh, TNKS2 / RFU, ZFP14 / Fold change vs veh, ZFP14 / RFU, ACTR2 / Fold change vs veh, ACTR2 / RFU, PPP3R1 / Fold change vs veh, PPP3R1 / RFU, PIK3R1 / Fold change vs veh, PIK3R1 / RFU, HNRNPA1 / Fold change vs veh, HNRNPA1 / RFU, RNF170 / Fold change vs veh, RNF170 / RFU, ZNF28 / Fold change vs veh, ZNF28 / RFU, RNGTT / Fold change vs veh, RNGTT / RFU, OGT / Fold change vs veh, OGT / RFU, BRD1 / Fold change vs veh, BRD1 / RFU, MARS / Fold change vs veh, MARS / RFU, ZNF655 / Fold change vs veh, ZNF655 / RFU, FAHD1 / Fold change vs veh, FAHD1 / RFU, BDP1 / Fold change vs veh, BDP1 / RFU, LRRCC1 / Fold change vs veh, LRRCC1 / RFU, ARID1A / Fold change vs veh, ARID1A / RFU, ZNF146 / Fold change vs veh, ZNF146 / RFU, ZNF330 / Fold change vs veh, ZNF330 / RFU, GPN3 / Fold change vs veh, GPN3 / RFU, C9orf123 / Fold change vs veh, C9orf123 / RFU, N4BP2L2 / Fold change vs veh, N4BP2L2 / RFU, ARFIP1 / Fold change vs veh, ARFIP1 / RFU, FAM179B / Fold change vs veh, FAM179B / RFU, BCL10 / Fold change vs veh, BCL10 / RFU, UHRF1BP1L / Fold change vs veh, UHRF1BP1L / RFU, BET1 / Fold change vs veh, BET1 / RFU, CNOT2 / Fold change vs veh, CNOT2 / RFU, ZNF268 / Fold change vs veh, ZNF268 / Fold change vs veh, ZNF507 / RFU, DGCR2 / Fold change vs veh, DGCR2 / RFU, WDSUB1 / Fold change vs veh, WDSUB1 / Fold change vs veh, HSP90B1 /// MIR3652 / RFU, ADSS / Fold change vs veh, ADSS / RFU, GK / Fold change vs veh, GK / RFU, ZNF148 / Fold change vs veh, ZNF148 / RFU, TAF9 / Fold change vs veh, TAF9 / RFU, SLC1A5 / Fold change vs veh, SLC1A5 / RFU, SLMO2 / Fold change vs veh, SLMO2 / RFU, ABCC4 / Fold change vs veh, ABCC4 / RFU, LOC101060439 /// RAP1B / Fold change vs veh, LOC101060439 /// RAP1B / RFU, RFX7 / Fold change vs veh, RFX7 / RFU, GTPBP10 / Fold change vs veh, GTPBP10 / RFU, CNEP1R1 / Fold change vs veh, CNEP1R1 / RFU, BIVM-ERCC5 /// ERCC5 / Fold change vs veh, BIVM-ERCC5 /// ERCC5 / RFU, ILF3 / Fold change vs veh, ILF3 / RFU 11762660_at / Fold change /veh 11762660_at / RFU VCAN (11757783_s_at) / Fold change /veh VCAN (11757783_s_at) / RFU DDX43 (11728927_at) / Fold change /veh DDX43 (11728927_at) / RFU KRT8 (11758188_x_at) / Fold change /veh KRT8 (11758188_x_at) / RFU NKD1 (11759106_at) / Fold change /veh NKD1 (11759106_at) / RFU SRD5A1 (11742802_a_at) / Fold change /veh SRD5A1 (11742802_a_at) / RFU TPSAB1 /// TPSB2 (11721975_s_at) / Fold change /veh TPSAB1 /// TPSB2 (11721975_s_at) / RFU GSTM3 (11746129_a_at) / Fold change /veh GSTM3 (11746129_a_at) / RFU IL23R (11737362_x_at) / Fold change /veh IL23R (11737362_x_at) / RFU TMEM51 (11727254_a_at) / Fold change /veh TMEM51 (11727254_a_at) / RFU PIWIL2 (11732686_x_at) / Fold change /veh PIWIL2 (11732686_x_at) / RFU ORM1 (11744905_x_at) / Fold change /veh ORM1 (11744905_x_at) / RFU CCDC152 (11743942_at) / Fold change /veh CCDC152 (11743942_at) / RFU ECM1 (11717891_a_at) / Fold change /veh ECM1 (11717891_a_at) / RFU IL23R (11748794_a_at) / Fold change /veh IL23R (11748794_a_at) / RFU TNFAIP8L3 (11732012_x_at) / Fold change /veh TNFAIP8L3 (11732012_x_at) / RFU MBOAT4 (11741988_at) / Fold change /veh MBOAT4 (11741988_at) / RFU 11764193_at / Fold change /veh 11764193_at / RFU TMEM53 (11763286_at) / Fold change /veh TMEM53 (11763286_at) / RFU MAGEB2 (11727129_at) / Fold change /veh MAGEB2 (11727129_at) / RFU TMEM200A (11744735_a_at) / Fold change /veh TMEM200A (11744735_a_at) / RFU CCDC152 (11751479_a_at) / Fold change /veh CCDC152 (11751479_a_at) / RFU FAM211A (11726209_a_at) / Fold change /veh FAM211A (11726209_a_at) / RFU RGS16 (11746705_a_at) / Fold change /veh RGS16 (11746705_a_at) / RFU VCAN (11755009_s_at) / Fold change /veh VCAN (11755009_s_at) / RFU RHOB (11743442_s_at) / Fold change /veh RHOB (11743442_s_at) / RFU RGS16 (11720943_a_at) / Fold change /veh RGS16 (11720943_a_at) / RFU RGS16 (11720944_at) / Fold change /veh RGS16 (11720944_at) / RFU, VPS4B / Fold change vs veh, VPS4B / RFU, CREB1 / Fold change vs veh, CREB1 / RFU, DNAJC13 / Fold change vs veh, DNAJC13 / RFU, GNAQ / Fold change vs veh, GNAQ / RFU, CDK5R1 / Fold change vs veh, CDK5R1 / RFU, ZRANB3 / Fold change vs veh, ZRANB3 / RFU, CUL4A / Fold change vs veh, CUL4A / RFU, CCNY / Fold change vs veh, CCNY / RFU, UFL1 / Fold change vs veh, UFL1 / RFU, COG3 / Fold change vs veh, COG3 / RFU, DIAPH2 / Fold change vs veh, DIAPH2 / RFU, SKA2 / Fold change vs veh, SKA2 / RFU, AFF3 / Fold change vs veh, AFF3 / RFU, LMF1 / Fold change vs veh, LMF1 / RFU, IPO11 / Fold change vs veh, IPO11 / RFU, DFFB / Fold change vs veh, DFFB / RFU, FOXP1 / Fold change vs veh, FOXP1 / RFU, CARD8 / Fold change vs veh, CARD8 / RFU, STRN3 / Fold change vs veh, STRN3 / RFU, ADK / Fold change vs veh, ADK / RFU, RASSF2 / Fold change vs veh, RASSF2 / RFU, WIPF1 / Fold change vs veh, WIPF1 / RFU, LARP1B / Fold change vs veh, LARP1B / RFU, RASA1 / Fold change vs veh, RASA1 / RFU, RB1 / Fold change vs veh, RB1 / RFU, PPFIA1 / Fold change vs veh, PPFIA1 / RFU, MAT2A / Fold change vs veh, MAT2A / RFU, CCT5 / Fold change vs veh, CCT5 / RFU, WDR92 / Fold change vs veh, WDR92 / RFU, CUX1 / Fold change vs veh, CUX1 / RFU, TTC7A / Fold change vs veh, TTC7A / RFU, TMEM135 / Fold change vs veh, TMEM135 / RFU, DEPTOR / Fold change vs veh, DEPTOR / RFU, CPM / Fold change vs veh, CPM / RFU, DNAJB6 / Fold change vs veh, DNAJB6 / RFU, CACNA2D3 / Fold change vs veh, CACNA2D3 / RFU, DTX4 / Fold change vs veh, DTX4 / RFU, TFCP2 / Fold change vs veh, TFCP2 / RFU, GMCL1 /// GMCL1P1 / Fold change vs veh, GMCL1 /// GMCL1P1 / RFU, AEBP2 / Fold change vs veh, AEBP2 / RFU, SNHG1 /// SNORD22 /// SNORD25 /// SNORD26 /// SNORD27 /// SNORD28 /// SNORD29 /// SNORD31 / Fold change vs veh, SNHG1 /// SNORD22 /// SNORD25 /// SNORD26 /// SNORD27 /// SNORD28 /// SNORD29 /// SNORD31 / Fold change (Aza/veh), C12orf56 (ProbeSet 11735607_a_at) / Fold change (ACY-1035/veh), C12orf56 (ProbeSet 11735607_a_at) / Fold change (Aza/veh), FGFR1OP (ProbeSet 11751329_s_at) / Fold change (ACY-1035/veh), FGFR1OP (ProbeSet 11751329_s_at) / Fold change (Aza/veh), VPS36 (ProbeSet 11739960_a_at) / Fold change (ACY-1035/veh), VPS36 (ProbeSet 11739960_a_at) / RFU SYPL1 (11715823_x_at) / Fold change /veh SYPL1 (11715823_x_at) / RFU IGFBP7 (11715501_s_at) / Fold change /veh IGFBP7 (11715501_s_at) / RFU REEP3 (11722064_at) / Fold change /veh REEP3 (11722064_at) / RFU IGLL1 (11728026_x_at) / Fold change /veh IGLL1 (11728026_x_at): dose or concentration left out as unconfirmed
Conditions: MV-4-11 cells, 48 hours

## Nc1ncn([C@@H]2O[C@H](CO)[C@@H](O)[C@H]2O)c(=O)n1 [azacitidine]
  RFU C10orf10 (11716522_x_at): 45.56 RFU
